Assay results: the RepoRT retention time repository (doi:10.1007/s00216-021-03828-0)

What was measured:
Details in all cases: stereoisomer not certain
[1] = RP, Merck Supelco Ascentis Express C18, 100 × 2.1 mm, 2 µm, 40 °C, 0.2 mL/min, estimated dead time 1.1 min; A: water + 0.1% formic acid, pH 3; B: acetonitrile + 0.1% formic acid, pH 3; gradient (min/%B) 0/5 2/5 17/99.9 20/99.9
[2] = as above; remark: listed apart in the source
[3] = RP, Merck Supelco Ascentis Express C18, 100 × 2.1 mm, 2 µm, 40 °C, 0.4 mL/min, estimated dead time 0.55 min; A: water + 0.1% formic acid, pH 3; B: acetonitrile + 0.1% formic acid, pH 3; gradient (min/%B) 0/5 2/5 17/99.9 20/99.9
[4] = as above; remark: listed apart in the source
[5] = RP, Merck Supelco Ascentis Express C18, 100 × 2.1 mm, 2 µm, 39 °C, 0.3 mL/min, estimated dead time 0.73 min; A: water + 0.1% formic acid, pH 3; B: acetonitrile + 0.1% formic acid, pH 3; gradient (min/%B) 0/5 2/5 17/99.9 20/99.9
[6] = RP, Merck Supelco Ascentis Express C18, 100 × 2.1 mm, 2 µm, 40 °C, 0.25 mL/min, estimated dead time 0.88 min; A: water + 0.1% formic acid, pH 3; B: acetonitrile + 0.1% formic acid, pH 3; gradient (min/%B) 0/5 2/5 17/99.9 20/99.9
[7] = RP, Merck Supelco Ascentis Express C18, 100 × 2.1 mm, 2 µm, 40 °C, 0.35 mL/min, estimated dead time 0.63 min; A: water + 0.1% formic acid, pH 3; B: acetonitrile + 0.1% formic acid, pH 3; gradient (min/%B) 0/5 2/5 17/99.9 20/99.9

Row | LC retention time [1] | LC retention time [2] | LC retention time [3] | LC retention time [4] | LC retention time [5] | LC retention time [6] | LC retention time [7] | Compound
1 | 4.21 min | 4.97 min | 2.15 min | 2.17 min | 4.07 min | 4.45 min | 2.45 min | O=CCc1c[nH]c2ccccc12 [INDOLEACETALDEHYDE]
2 | 4.66 min | 4.69 min | 3.58 min | 3.58 min | 3.99 min | 4.27 min | 3.76 min | Nc1nc2ncc(CNc3ccc(C(=O)NC(CCC(=O)O)C(=O)O)cc3)nc2c(=O)[nH]1 (stereo unspecified) [FOLATE]
3 | 7.13 min | 7.14 min | 5.87 min | 5.85 min | 6.32 min | 6.66 min | 6.06 min | CCCCCCSCC(NC(=O)CCC(N)C(=O)O)C(=O)NCC(=O)O (stereo unspecified) [S-HEXYL-GLUTATHIONE]
4 | 4.85 min | 4.83 min | 2.95 min | 2.88 min | 3.67 min | 4.19 min | 3.28 min | O=C(O)Cc1ccccc1O [2-HYDROXYPHENYLACETATE]
5 | 15.9 min | 15.9 min | 13.9 min | 13.9 min | 14.7 min | 15.2 min | 14.2 min | CCC=CCC=CCC=CCC=CCC=CCCCC(=O)O [EICOSAPENTAENOATE]
6 | 2.76 min | 2.77 min | 1.46 min | 1.39 min | 1.89 min | 2.22 min | 1.58 min | CC(=O)N1CCCC1C(=O)O (stereo unspecified) [N-ACETYLPROLINE]
7 | 10.7 min | 10.8 min | 9.29 min | 9.25 min | 9.71 min | 10.2 min | 9.5 min | CCCCCCCCCCCC(=O)OC(CC(=O)[O-])C[N+](C)(C)C (stereo unspecified) [LAUROYLCARNITINE]
8 | 1.41 min | 1.41 min | 0.7 min | 0.687 min | 0.967 min | 1.13 min | 0.783 min | O=c1[nH]c(=O)c2nccnc2[nH]1 [2,4-DIHYDROXYPTERIDINE]
9 | 7.27 min | 7.25 min | 5.61 min | 4.78 min | 6.22 min | 6.66 min | 5.95 min | OCCc1c[nH]c2ccccc12 [INDOLE-3-ETHANOL]
10 | 7.21 min | 7.22 min | 6.02 min | 5.98 min | 6.45 min | 6.77 min | 6.19 min | N[C@@H](Cc1cc(I)c(Oc2ccc(O)cc2)c(I)c1)C(=O)O [3,5-DIIODO-L-THYRONINE]
11 | 3.01 min | 3.05 min | 1.48 min | 1.48 min | 2.06 min | 2.31 min | 1.72 min | CCC(C(=O)O)C(=O)O [ETHYLMALONATE]
12 | 6.26 min | 6.25 min | 4.68 min | 4.64 min | 5.3 min | 5.68 min | 4.94 min | O=C(O)C=Cc1ccc(O)cc1 [4-COUMARATE]
13 | 5.89 min | 5.9 min | 4.39 min | 4.36 min | 4.93 min | 5.35 min | 4.63 min | CC(=O)NC(CC(C)C)C(=O)O (stereo unspecified) [N-ACETYLLEUCINE]
